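How tested: cells in 96-well plates exposed to compound for 48 hours at five concentrations. The concentration for full growth arrest is given as TGI.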
What was measured:
Test in all cases: NCI-60 cell line screen, 48 h
A498 renal = tested on: A498 renal
A549 NSCLC = tested on: A549 NSCLC
ACHN renal = tested on: ACHN renal
CCRF-CEM leukemia = tested on: CCRF-CEM leukemia
DLD-1 colon = tested on: DLD-1 colon
DMS 273 small cell lung = tested on: DMS 273 small cell lung
EKVX NSCLC = tested on: EKVX NSCLC
HCC-2998 colon = tested on: HCC-2998 colon
HCT-116 colon = tested on: HCT-116 colon
HCT-15 colon = tested on: HCT-15 colon
HL-60(TB) leukemia = tested on: HL-60(TB) leukemia
HOP-18 NSCLC = tested on: HOP-18 NSCLC
HOP-62 NSCLC = tested on: HOP-62 NSCLC
HOP-92 NSCLC = tested on: HOP-92 NSCLC
HT29 colon = tested on: HT29 colon
IGROV1 ovarian = tested on: IGROV1 ovarian
K-562 leukemia = tested on: K-562 leukemia
KM12 colon = tested on: KM12 colon
KM20L2 colon = tested on: KM20L2 colon
LOX IMVI melanoma = tested on: LOX IMVI melanoma
M14 melanoma = tested on: M14 melanoma
MALME-3M melanoma = tested on: MALME-3M melanoma
MOLT-4 leukemia = tested on: MOLT-4 leukemia
NCI-H226 lung = tested on: NCI-H226 lung
NCI-H23 lung = tested on: NCI-H23 lung
NCI-H460 lung = tested on: NCI-H460 lung
NCI-H522 lung = tested on: NCI-H522 lung
OVCAR-3 ovarian = tested on: OVCAR-3 ovarian
OVCAR-4 ovarian = tested on: OVCAR-4 ovarian
OVCAR-5 ovarian = tested on: OVCAR-5 ovarian
OVCAR-8 ovarian = tested on: OVCAR-8 ovarian
RPMI-8226 leukemia = tested on: RPMI-8226 leukemia
RXF 393 renal = tested on: RXF 393 renal
SF-268 CNS = tested on: SF-268 CNS
SF-295 CNS = tested on: SF-295 CNS
SF-539 CNS = tested on: SF-539 CNS
SK-MEL-2 melanoma = tested on: SK-MEL-2 melanoma
SK-MEL-28 melanoma = tested on: SK-MEL-28 melanoma
SK-MEL-5 melanoma = tested on: SK-MEL-5 melanoma
SK-OV-3 ovarian = tested on: SK-OV-3 ovarian
SN12C renal = tested on: SN12C renal
SNB-19 CNS = tested on: SNB-19 CNS
SNB-75 CNS = tested on: SNB-75 CNS
SR leukemia = tested on: SR leukemia
SW-620 colon = tested on: SW-620 colon
TK-10 renal = tested on: TK-10 renal
U251 CNS = tested on: U251 CNS
UACC-257 melanoma = tested on: UACC-257 melanoma
UACC-62 melanoma = tested on: UACC-62 melanoma
UO-31 renal = tested on: UO-31 renal
XF 498 CNS = tested on: XF 498 CNS
786-0 renal = tested on: 786-0 renal
CAKI-1 renal = tested on: CAKI-1 renal
COLO 205 colon = tested on: COLO 205 colon
DMS 114 small cell lung = tested on: DMS 114 small cell lung
LXFL 529 NSCLC = tested on: LXFL 529 NSCLC
M19-MEL melanoma = tested on: M19-MEL melanoma
SNB-78 CNS = tested on: SNB-78 CNS

C=CCOCCC(CC=C)C(=O)CC(=O)OC (stereo not drawn)
TGI (A498 renal): > 100 µM | TGI (A549 NSCLC): > 100 µM | TGI (ACHN renal): > 100 µM | TGI (CCRF-CEM leukemia): > 100 µM | TGI (DLD-1 colon): > 100 µM | TGI (DMS 273 small cell lung): > 100 µM | TGI (EKVX NSCLC): > 100 µM | TGI (HCC-2998 colon): > 100 µM | TGI (HCT-116 colon): > 100 µM | TGI (HCT-15 colon): > 100 µM | TGI (HL-60(TB) leukemia): > 100 µM | TGI (HOP-18 NSCLC): > 100 µM | TGI (HOP-62 NSCLC): > 100 µM | TGI (HOP-92 NSCLC): > 100 µM | TGI (HT29 colon): > 100 µM | TGI (IGROV1 ovarian): > 100 µM | TGI (K-562 leukemia): > 100 µM | TGI (KM12 colon): > 100 µM | TGI (KM20L2 colon): > 100 µM | TGI (LOX IMVI melanoma): > 100 µM | TGI (M14 melanoma): > 100 µM | TGI (MALME-3M melanoma): > 100 µM | TGI (MOLT-4 leukemia): > 100 µM | TGI (NCI-H226 lung): > 100 µM | TGI (NCI-H23 lung): > 100 µM | TGI (NCI-H460 lung): > 100 µM | TGI (NCI-H522 lung): > 100 µM | TGI (OVCAR-3 ovarian): > 100 µM | TGI (OVCAR-4 ovarian): > 100 µM | TGI (OVCAR-5 ovarian): > 100 µM | TGI (OVCAR-8 ovarian): > 100 µM | TGI (RPMI-8226 leukemia): > 100 µM | TGI (RXF 393 renal): > 100 µM | TGI (SF-268 CNS): > 100 µM | TGI (SF-295 CNS): > 100 µM | TGI (SF-539 CNS): > 100 µM | TGI (SK-MEL-2 melanoma): > 100 µM | TGI (SK-MEL-28 melanoma): > 100 µM | TGI (SK-MEL-5 melanoma): > 100 µM | TGI (SK-OV-3 ovarian): > 100 µM | TGI (SN12C renal): > 100 µM | TGI (SNB-19 CNS): > 100 µM | TGI (SNB-75 CNS): > 100 µM | TGI (SR leukemia): > 100 µM | TGI (SW-620 colon): > 100 µM | TGI (TK-10 renal): > 100 µM | TGI (U251 CNS): > 100 µM | TGI (UACC-257 melanoma): > 100 µM | TGI (UACC-62 melanoma): > 100 µM | TGI (UO-31 renal): > 100 µM | TGI (XF 498 CNS): > 100 µM

ClCC[N-]CC[N-]CCCl.ClCC[N-]CC[N-]CCCl.[O-][Cl+3]([O-])([O-])O.[Zn+2]
TGI (786-0 renal): 39.1 µM | TGI (A498 renal): > 100 µM | TGI (A549 NSCLC): > 100 µM | TGI (ACHN renal): 49.6 µM | TGI (CAKI-1 renal): 39.7 µM | TGI (CCRF-CEM leukemia): 82.3 µM | TGI (COLO 205 colon): > 72.2 µM | TGI (DLD-1 colon): 35 µM | TGI (DMS 114 small cell lung): > 55.8 µM | TGI (DMS 273 small cell lung): > 60.2 µM | TGI (EKVX NSCLC): > 100 µM | TGI (HCC-2998 colon): > 100 µM | TGI (HCT-116 colon): > 62.8 µM | TGI (HCT-15 colon): > 100 µM | TGI (HL-60(TB) leukemia): > 100 µM | TGI (HOP-18 NSCLC): 56.5 µM | TGI (HOP-62 NSCLC): > 100 µM | TGI (HOP-92 NSCLC): > 57.3 µM | TGI (HT29 colon): > 100 µM | TGI (IGROV1 ovarian): > 62.3 µM | TGI (K-562 leukemia): 68.7 µM | TGI (KM12 colon): > 100 µM | TGI (KM20L2 colon): > 100 µM | TGI (LOX IMVI melanoma): 57.2 µM | TGI (LXFL 529 NSCLC): 35.9 µM | TGI (M14 melanoma): 38.5 µM | TGI (M19-MEL melanoma): > 57.1 µM | TGI (MALME-3M melanoma): 37.4 µM | TGI (MOLT-4 leukemia): > 100 µM | TGI (NCI-H226 lung): > 100 µM | TGI (NCI-H23 lung): > 60.3 µM | TGI (NCI-H460 lung): > 71.2 µM | TGI (NCI-H522 lung): 27.3 µM | TGI (OVCAR-3 ovarian): 32.1 µM | TGI (OVCAR-4 ovarian): 41.8 µM | TGI (OVCAR-5 ovarian): 46.6 µM | TGI (OVCAR-8 ovarian): 45.4 µM | TGI (RPMI-8226 leukemia): > 100 µM | TGI (RXF 393 renal): > 59.1 µM | TGI (SF-268 CNS): 56.6 µM | TGI (SF-295 CNS): > 100 µM | TGI (SF-539 CNS): > 67.8 µM | TGI (SK-MEL-2 melanoma): 41.4 µM | TGI (SK-MEL-28 melanoma): > 62.4 µM | TGI (SK-MEL-5 melanoma): 56.1 µM | TGI (SK-OV-3 ovarian): > 100 µM | TGI (SN12C renal): > 100 µM | TGI (SNB-19 CNS): > 100 µM | TGI (SNB-75 CNS): 44.1 µM | TGI (SNB-78 CNS): > 76.6 µM | TGI (SR leukemia): > 100 µM | TGI (SW-620 colon): 47.2 µM | TGI (TK-10 renal): > 71.1 µM | TGI (U251 CNS): > 67.3 µM | TGI (UACC-257 melanoma): 63.2 µM | TGI (UACC-62 melanoma): 66.9 µM | TGI (UO-31 renal): > 72.5 µM
